Measured values: ChEMBL document CHEMBL1909294, “Translating clinical findings into knowledge in drug safety evaluation--drug induced liver injury prediction system (DILIps)” (PLoS Comput Biol, 2011)

What was measured:
[1] = system: Hepatotoxicity;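 on HepSE bilirubinemia: bilirubinemia hepatic side effect score drawn from the DILIps training data, a prediction system for drug-induced liver injury; call rule not given here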;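 on HepSE cholecystitis: Cholecystitis-related hepatic side effect score drawn from the DILIps (drug-induced liver injury prediction) training data set; call rule not given here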;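 on HepSE cholelithiasis: hepatic side effect score for cholelithiasis, drawn from the DILIps training data for predicting drug-induced liver injury; call rule not given here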;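 on HepSE cirrhosis: cirrhosis hepatic side effect score taken from the DILIps (drug-induced liver injury prediction) training set; call rule not given here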;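 on HepSE elevated liver function tests: hepatic side effect score for raised liver function tests, as recorded in the DILIps training set used for predicting drug-induced liver injury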; on HepSE hepatic failure: call rule not given here;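 on HepSE hepatomegaly: hepatic side effect score for hepatomegaly, taken from the training set of the DILIps drug-induced liver injury prediction system; call rule not given here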
[2] = system: Hepatotoxicity; remark: listed apart in the source;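 on HepSE bilirubinemia: bilirubinemia hepatic side effect score drawn from the DILIps training data, a prediction system for drug-induced liver injury; call rule not given here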;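 on HepSE cholecystitis: Cholecystitis-related hepatic side effect score drawn from the DILIps (drug-induced liver injury prediction) training data set; call rule not given here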;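 on HepSE cholelithiasis: hepatic side effect score for cholelithiasis, drawn from the DILIps training data for predicting drug-induced liver injury; call rule not given here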;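 on HepSE cirrhosis: cirrhosis hepatic side effect score taken from the DILIps (drug-induced liver injury prediction) training set; call rule not given here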;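 on HepSE elevated liver function tests: hepatic side effect score for raised liver function tests, as recorded in the DILIps training set used for predicting drug-induced liver injury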; on HepSE hepatic failure: call rule not given here;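 on HepSE hepatomegaly: hepatic side effect score for hepatomegaly, taken from the training set of the DILIps drug-induced liver injury prediction system; call rule not given here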
[3] = system: Hepatotoxicity; remark: listed apart in the source;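 on HepSE bilirubinemia: bilirubinemia hepatic side effect score drawn from the DILIps training data, a prediction system for drug-induced liver injury; call rule not given here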;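 on HepSE cholecystitis: Cholecystitis-related hepatic side effect score drawn from the DILIps (drug-induced liver injury prediction) training data set; call rule not given here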;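 on HepSE cholelithiasis: hepatic side effect score for cholelithiasis, drawn from the DILIps training data for predicting drug-induced liver injury; call rule not given here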;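 on HepSE cirrhosis: cirrhosis hepatic side effect score taken from the DILIps (drug-induced liver injury prediction) training set; call rule not given here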;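 on HepSE elevated liver function tests: hepatic side effect score for raised liver function tests, as recorded in the DILIps training set used for predicting drug-induced liver injury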; on HepSE hepatic failure: call rule not given here
[4] = system: Hepatotoxicity; remark: listed apart in the source;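 on HepSE bilirubinemia: bilirubinemia hepatic side effect score drawn from the DILIps training data, a prediction system for drug-induced liver injury; call rule not given here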;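 on HepSE cholecystitis: Cholecystitis-related hepatic side effect score drawn from the DILIps (drug-induced liver injury prediction) training data set; call rule not given here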;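 on HepSE cholelithiasis: hepatic side effect score for cholelithiasis, drawn from the DILIps training data for predicting drug-induced liver injury; call rule not given here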;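 on HepSE cirrhosis: cirrhosis hepatic side effect score taken from the DILIps (drug-induced liver injury prediction) training set; call rule not given here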;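 on HepSE elevated liver function tests: hepatic side effect score for raised liver function tests, as recorded in the DILIps training set used for predicting drug-induced liver injury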; on HepSE hepatic failure: call rule not given here
[5] = system: Hepatotoxicity; remark: listed apart in the source; on HepSE hepatic failure: call rule not given here
[6] = system: Hepatotoxicity; remark: listed apart in the source; on HepSE hepatic failure: call rule not given here
[7] = system: Hepatotoxicity; remark: listed apart in the source
[8] = system: Hepatotoxicity; remark: listed apart in the source
[9] = system: Hepatotoxicity; remark: listed apart in the source
[10] = system: Hepatotoxicity; remark: listed apart in the source
[11] = system: Hepatotoxicity; remark: listed apart in the source
[12] = system: Hepatotoxicity; remark: listed apart in the source
[13] = system: Hepatotoxicity; remark: listed apart in the source
[14] = system: Hepatotoxicity; remark: listed apart in the source

SMILES | HepSE_bilirubinemia [1] | HepSE_cholecystitis [2] | HepSE_cholelithiasis [3] | HepSE_cirrhosis [4] | HepSE_hepatic failure [6] | HepSE_hepatic necrosis [7] | HepSE_hepatitis [8] | HepSE_hepatomegaly [9] | HepSE_jaundice [10] | HepSE_liver disease [11] | HepSE_liver fatty [12] | HepSE_Combined Scores [14] | HepSE_elevated liver function tests [5] | HepSE_liver function tests abnormal [13] | also measured
Cc1ccccc1C(OCCN(C)C)c1ccccc1 (stereo not drawn) [ORPHENADRINE] | 0 | 0 | 0 | 0 | 0 | 0 | 0 | 0 | 0 | 0 | 0 | 0 | – | – | HepSE_elevated liver function tests ([5]; Liver): 0; HepSE_liver function tests abnormal ([13]; Liver): 0
CCOC(=O)C1=C[C@@H](OC(CC)CC)[C@H](NC(C)=O)[C@@H](N)C1 [OSELTAMIVIR] | 0 | 0 | 0 | 0 | 1 | 0 | 1 | 0 | 0 | 0 | 0 | 3 | 0 | 1 | –
Cc1onc(-c2ccccc2)c1C(=O)N[C@@H]1C(=O)N2[C@@H]1SC(C)(C)[C@@H]2C(=O)O [OXACILLIN] | 0 | 0 | 0 | 0 | 0 | 0 | 0 | 0 | 0 | 0 | 0 | 1 | 0 | 1 | –
C[C@]12COC(=O)C[C@@H]1CC[C@@H]1[C@@H]2CC[C@@]2(C)[C@H]1CC[C@]2(C)O [OXANDROLONE] | 0 | 0 | 0 | 0 | 0 | 1 | 0 | 0 | 1 | 0 | 0 | 2 | 0 | 0 | –
O=C(O)CCc1nc(-c2ccccc2)c(-c2ccccc2)o1 [OXAPROZIN] | 0 | 0 | 0 | 0 | 1 | 0 | 1 | 0 | 1 | 0 | 0 | 3 | 0 | 0 | –
NC(=O)N1c2ccccc2CC(=O)c2ccccc21 [OXCARBAZEPINE] | 0 | 0 | 1 | 0 | 0 | 0 | 0 | 0 | 0 | 0 | 0 | 2 | 0 | 1 | –
Clc1ccc(CO/N=C(\Cn2ccnc2)c2ccc(Cl)cc2Cl)c(Cl)c1 [OXICONAZOLE] | 0 | 0 | 0 | 0 | 0 | 0 | 0 | 0 | 0 | 0 | 0 | 0 | – | – | HepSE_elevated liver function tests ([5]; Liver): 0; HepSE_liver function tests abnormal ([13]; Liver): 0
C[N+](C)(C)CCO.Cn1c(=O)c2[n-]cnc2n(C)c1=O [OXTRIPHYLLINE] | 0 | 0 | 0 | 0 | 0 | 0 | 0 | 0 | 0 | 0 | 0 | 0 | 0 | 0 | –
CCN(CC)CC#CCOC(=O)C(O)(c1ccccc1)C1CCCCC1 (stereo not drawn) [OXYBUTYNIN] | 0 | 0 | 0 | 0 | 0 | 0 | 0 | 0 | 0 | 0 | 0 | 1 | 0 | 1 | –
COc1ccc2c3c1O[C@H]1C(=O)CC[C@@]4(O)[C@@H](C2)N(C)CC[C@]314 [OXYCODONE] | – | – | – | – | – | – | – | – | – | – | – | – | – | – | HepSE_bilirubinemia ([1]; Liver): 0; HepSE_cholecystitis ([2]; Liver): 0; HepSE_cholelithiasis ([3]; Liver): 0; HepSE_cirrhosis ([4]; Liver): 0; HepSE_elevated liver function tests ([5]; Liver): 0; HepSE_hepatic failure ([6]; Liver): 0; HepSE_hepatic necrosis ([7]; Liver): 0; HepSE_hepatitis ([8]; Liver): 0; HepSE_hepatomegaly ([9]; Liver): 1; HepSE_jaundice ([10]; Liver): 0; HepSE_liver disease ([11]; Liver): 0; HepSE_liver fatty ([12]; Liver): 0; HepSE_liver function tests abnormal ([13]; Liver): 0; HepSE_Combined Scores ([14]; Liver): 1
C[C@]12C/C(=C/O)C(=O)C[C@@H]1CC[C@@H]1[C@@H]2CC[C@@]2(C)[C@H]1CC[C@]2(C)O [OXYMETHOLONE] | 0 | 0 | 0 | 0 | 0 | 1 | 0 | 0 | 1 | 0 | 0 | 2 | 0 | 0 | –
CN(C)[C@@H]1C(O)=C(C(N)=O)C(=O)[C@@]2(O)C(O)=C3C(=O)c4c(O)cccc4[C@@](C)(O)[C@H]3[C@H](O)[C@@H]12 [OXYTETRACYCLINE] | 0 | 0 | 0 | 0 | 0 | 0 | 0 | 0 | 0 | 0 | 0 | 0 | 0 | 0 | –
CC[C@H](C)[C@@H]1NC(=O)[C@H](Cc2ccc(O)cc2)NC(=O)[C@@H](N)CSSC[C@@H](C(=O)N2CCC[C@H]2C(=O)N[C@@H](CC(C)C)C(=O)NCC(N)=O)NC(=O)[C@H](CC(N)=O)NC(=O)[C@H](CCC(N)=O)NC1=O [OXYTOCIN] | 0 | 0 | 0 | 0 | 0 | 0 | 0 | 0 | 0 | 0 | 0 | 0 | 0 | 0 | –
CC(=O)O[C@H]1C(=O)[C@@]2(C)[C@H]([C@H](OC(=O)c3ccccc3)[C@]3(O)C[C@H](OC(=O)[C@H](O)[C@@H](NC(=O)c4ccccc4)c4ccccc4)C(C)=C1C3(C)C)[C@]1(OC(C)=O)CO[C@@H]1C[C@@H]2O [PACLITAXEL] | – | – | – | – | – | – | – | – | – | – | – | – | – | – | HepSE_bilirubinemia ([1]; Liver): 0; HepSE_cholecystitis ([2]; Liver): 0; HepSE_cholelithiasis ([3]; Liver): 0; HepSE_cirrhosis ([4]; Liver): 0; HepSE_elevated liver function tests ([5]; Liver): 1; HepSE_hepatic failure ([6]; Liver): 0; HepSE_hepatic necrosis ([7]; Liver): 1; HepSE_hepatitis ([8]; Liver): 0; HepSE_hepatomegaly ([9]; Liver): 0; HepSE_jaundice ([10]; Liver): 0; HepSE_liver disease ([11]; Liver): 0; HepSE_liver fatty ([12]; Liver): 0; HepSE_liver function tests abnormal ([13]; Liver): 0; HepSE_Combined Scores ([14]; Liver): 2
Cc1nc2n(c(=O)c1CCN1CCC(c3noc4cc(F)ccc34)CC1)CCCC2O (stereo not drawn) [PALIPERIDONE] | 0 | 0 | 0 | 0 | 0 | 0 | 0 | 0 | 0 | 0 | 0 | 0 | 0 | 0 | –
O=C1c2cccc3c2[C@H](CCC3)CN1[C@@H]1CN2CCC1CC2 [PALONOSETRON] | 0 | 0 | 0 | 0 | 0 | 0 | 0 | 0 | 0 | 0 | 0 | 0 | 0 | 0 | –
NCCC(O)(P(=O)(O)O)P(=O)(O)O [PAMIDRONIC ACID] | 0 | 0 | 0 | 0 | 0 | 0 | 0 | 0 | 0 | 0 | 0 | 1 | 0 | 1 | –
